The source of these data is EPA's ToxValDB 9.5.

The subject of the data set is Rattus norvegicus. The note with it: oral.
[1] abbreviates: subchronic, gavage, M, Sprague-Dawley, Clinical Observation: Salivation + Water Consumption: increase + Urinalysis: Urinary volume increase + Thyroid Hormone: Thyroid hormones', '….
[2] abbreviates: short-term, duration: 28 days, gavage, F, Sprague-Dawley, Clinical Observation: Soiled perigenital fur + Body Weight Changes: Gain decrease + Urinalysis: Pale yellow or yellow/slightly brownish + ….
Setting [3] is: short-term, duration: 28 days, gavage, M, Sprague-Dawley, Clinical Observation: Soiled perigenital fur + Body Weight Changes: Gain decrease + Urinalysis: Pale yellow or yellow/slightly brownish + ….
Setting [4] is: short-term, duration: 28 days, gavage, M/F, Sprague-Dawley, Clinical Observation: Sedation Paleness + Functional Observational Battery: Forelimb grip strength decrease, Motor activity decrease, Motor ….
Setting [5] is: subchronic, gavage, M, Sprague-Dawley, Clinical Observation: Salivation Clonic convulsion + Body Weight Changes: Body weight gain decrease + Food Consumption: decrease + Water ….
[6] abbreviates: short-term, duration: 28 days, gavage, F, Sprague-Dawley, Clinical Observation: Piloerection + Urinalysis: pH decrease, K decrease + Relative Organ Weight: Spleen increase.
Where [7] appears, read: short-term, duration: 28 days, gavage, M, Sprague-Dawley, Clinical Observation: Piloerection + Urinalysis: pH decrease, K decrease + Relative Organ Weight: Spleen increase.

The structures appear in SMILES notation. Structures can show the parent of a compound that is named as a salt.

As to `ClC(Cl)C(Cl)Cl` [1,1,2,2-Tetrachloroethane], the NOEL by setting is: (subchronic, diet, F, Fischer 344, Clinical Observation: Thinness Pallor + Body Weight Changes: decrease + Food Consumption: decrease + Hematology: Manual Hct decrease, Plt …) 10.1 mg/kg-day; (subchronic, diet, M/F, Fischer 344, Clinical Observation: Thinness Pallor + Body Weight Changes: decrease + Food Consumption: decrease + Hematology: Manual Hct decrease, Plt …) less than 25.7 mg/kg-day; (subchronic, diet, M, Fischer 344, Clinical Observation: Thinness Pallor + Body Weight Changes: decrease + Food Consumption: decrease + Hematology: Manual Hct decrease, Plt …) 16.6 mg/kg-day.

With `O=C(Cl)c1ccc(Cl)cc1` [4-Chlorobenzoyl chloride], under setting [1], the LOEL was found to be 500 mg/kg-day and the NOEL was determined as 100 mg/kg-day.

In the case of `CCC(C)(C)c1ccccc1` [tert-Pentylbenzene], the LOEL worked out at 1000 mg/kg-day under setting [2] and 100 mg/kg-day under setting [3]. For the same compound, the NOEL runs as follows: under setting [2], 300 mg/kg-day; under setting [3], less than 100 mg/kg-day.

`O=C(O)C(Cl)(Cl)Cl` [Trichloroacetic acid]: the NOEL (short-term, duration: 28 days, gavage, M/F, Clinical Observation: Salivation Soft feces Locomotor activity decrease + Urinalysis: Ketone body increase + Hematology: WBC increase, Trend…) is 40 mg/kg-day.

Turning to `COC(CCl)OC` [Ethane, 2-chloro-1,1-dimethoxy-], the NOEL (short-term, duration: 28 days, gavage, M/F, Blood Chemistry: GPT increase, ALP increase, T-Bil increase, IP decrease + Organ Weight: Liver increase, Spleen decrease, Kidney increase, …) was 15 mg/kg-day.

For the compound `CN1C(=O)C(O)N=C(c2ccccc2Cl)c2cc(Cl)ccc21` (configuration not stated) [Lormetazepam], the NOEL amounted to 4 mg/kg-day (subchronic, duration: 35 days, gavage, F, Sprague-Dawley, Clinical Observation: Locomotor activity decrease, Drowsiness Aggression + Body Weight Changes: Body weight gain increase + Food Consumption…) and 20 mg/kg-day (subchronic, duration: 35 days, gavage, M, Sprague-Dawley, Clinical Observation: Locomotor activity decrease, Drowsiness Aggression + Body Weight Changes: Body weight gain increase + Food Consumption…).

For the compound `C=CCCCC=C(C)C` [1,6-Octadiene, 7-methyl-], the NOEL (short-term, duration: 28 days, gavage, M/F, Clinical Observation: Salivation + Blood Chemistry: TG increase) is 10 mg/kg-day.

For `COC(=O)C1=C(C#N)NC(C)=C(C(=O)OC(C)C)C1c1cccc([N+](=O)[O-])c1` (configuration not stated) [Nilvadipine], the NOEL (subchronic, gavage, M/F, Sprague-Dawley, Relative Organ Weight: Heart increase Liver increase Ovary increase + Histopathology: Adrenal-Lipoid increase, of zona glomerulosa) was less than 9.6 mg/kg-day.

In the case of `NS(=O)(=O)c1cc(C(=O)O)c(NCc2ccco2)cc1Cl` [Furosemide], the NOEL (subchronic, duration: 13 weeks, diet, M/F, Fischer 344, Deaths + Clinical Observation: Diuresis Rough fur + Body Weight Changes: decrease + Food Consumption: decrease + Relative Organ Weight: …) was less than 60 mg/kg-day.

Regarding `CCCCC(CC)COP(=O)(O)CC(CC)CCCC` (configuration not stated) [Phosphonic acid, P-(2-ethylhexyl)-, mono(2-ethylhexyl) ester], the NOEL (subchronic, gavage, M, Sprague-Dawley, Hematology: Hgb decrease, Hct decrease + Blood Chemistry: Alb increase, A/G increase + Absolute Organ Weight: Liver increase + Relative …) was 30 mg/kg-day.

Usually NOAEL stands for the highest dose or exposure tested at which no adverse effect was seen. On to `CCCCCCC[CH2][Sn]([Cl])([Cl])[CH2]CCCCCCC` [Dichloro(dioctyl)stannane], for which the no observed adverse effect level (NOAEL) (subchronic, duration: 90 days, diet, M/F, Wistar, Body Weight Changes: Weight gain decrease + Food Consumption: decrease + Urinalysis: Crystals increase + Hematology: RBC decrease, HGB …) was greater than 0.96 mg/kg-day.

As for `Cl.Nc1ccccc1-c1ccccc1` [2-Biphenylamine hydrochloride], the NOEL (subchronic, duration: 13 weeks, diet, M/F, Fischer 344, Histopathology: Spleen-Congestion Spleen-Extramedullary hematopoiesis Spleen-Hemosiderosis Spleen-Thickened capsule Spleen-Lymphoid atrophy …) came to 28.8 mg/kg-day.

On to `NS(=O)(=O)Cc1noc2ccccc12` [Zonisamide], for which the NOAEL (short-term, duration: 28 days, gavage, M/F, Sprague-Dawley, Deaths + Clinical Observation: Locomotor activity decrease, Ataxic gait Hypotonia, Abdominal region + Body Weight Changes: Body weight gain …) is 20 mg/kg-day.

Take `C=CS(=O)(=O)CCNC(=O)c1cccc(Nc2nc(F)nc(Nc3cc(S(=O)(=O)[O-])cc4cc(S(=O)(=O)[O-])c(N=Nc5ccc6c(S(=O)(=O)[O-])cccc6c5S(=O)(=O)[O-])c(O)c34)n2)c1.[Na+].[Na+].[Na+].[Na+]`: where the note is “short-term, duration: 28 days, gavage, M/F, Urinalysis: Occult blood increase, Bil increase + Hematology: RET increase, WBC increase, LYMPH increase + Blood Chemistry: BUN increase, T-…”, the NOEL turned out to be 50 mg/kg-day.

As for `C1=Cc2cccc3cccc1c23` [Acenaphthylene], the NOEL (short-term, duration: 28 days, gavage, M/F, Crl:CD(SD), Deaths + Clinical Observation: Salivation, Rough coat, Wasting, Rearing cunut decrease + Functional Observational Battery: Forearm strength…) stood at 4 mg/kg-day.

In general, LOAEL refers to the lowest dose or exposure tested at which an adverse effect was seen. Consider `CCOC(N)=O` [Urethane], for which the LOAEL under setting [4] amounted to 100 mg/kg-day. In addition, the LOEL under setting [4] was 100 mg/kg-day. Also, the NOAEL under setting [4] worked out at 20 mg/kg-day. Besides, the NOEL is 20 mg/kg-day under setting [4]; 10 mg/kg-day (subchronic, drinking water, F, Fischer 344, Deaths + Body Weight Changes: decrease + Water Consumption: decrease + Hematology: WBC decrease, Lympho decrease + Blood Chemistry: BUN …); 11 mg/kg-day (subchronic, drinking water, F, Fischer 344, Deaths + Clinical Observation: Thinness, abnormal posture, and ruffled fur + Body Weight Changes: decrease + Water Consumption: decrease + …); less than 16.7 mg/kg-day (subchronic, drinking water, M/F, Fischer 344, Deaths + Body Weight Changes: decrease + Water Consumption: decrease + Hematology: WBC decrease, Lympho decrease + Blood Chemistry: BUN …); less than 16.7 mg/kg-day (subchronic, drinking water, M/F, Fischer 344, Deaths + Clinical Observation: Thinness, abnormal posture, and ruffled fur + Body Weight Changes: decrease + Water Consumption: decrease + …).

As to `CC(=O)OC1CCCCC1C(C)(C)C` (configuration not stated) [2-tert-Butylcyclohexyl acetate], under setting [5], the NOAEL was less than 50 mg/kg-day and the NOEL was less than 50 mg/kg-day.

Take `CCCCCCCCCCCCCCCCCCCCCC[N+](C)(C)C.[Cl-]` [Docosyltrimethylammonium chloride]: the NOEL (subchronic, gavage, M, Sprague-Dawley, Clinical Observation: Salivation Perinasal and perioral smudge Soft stool and diarrhea + Body Weight Changes: decrease, R + Food …) was less than 5 mg/kg-day.

As to `O=C(O)CCCN1CCC(O[C@@H](c2ccc(Cl)cc2)c2ccccn2)CC1.O=S(=O)(O)c1ccccc1` [Bepotastine besylate], the NOAEL (short-term, duration: 28 days, gavage, M/F, CD, Clinical Observation: Mydriasis Salivation Soiled perineal region + Body Weight Changes: decrease + Food Consumption: decrease + Urinalysis…) worked out at 100 mg/kg-day.

As for `O=C(O)c1cccc([N+](=O)[O-])c1C(=O)O` [3-Nitrophthalic acid], under setting [6], the NOAEL was determined as 500 mg/kg-day and the NOEL is 500 mg/kg-day. Also, under setting [7], the LOEL was determined as 500 mg/kg-day, the NOAEL was determined as 500 mg/kg-day and the NOEL came out at 100 mg/kg-day.

Take `CCCCCCOCCOCCO` [2-[2-(Hexyloxy)ethoxy]ethanol]: for the setting “subchronic, duration: 53 days, diet, M, SD(CD), Body Weight Changes: Mean body weight decrease + Food Consumption: decrease + Urinalysis: pH decrease + Relative Organ Weight: Liver …”, the no observed adverse effect level (NOAEL) came to 300 mg/kg-day.

With `O[Si](O)(C1CCCC1)C1CCCC1` [Dicyclopentylsilanediol], for the setting “subchronic, duration: 90 days, gavage, M, Sprague-Dawley, Clinical Observation: Ataxic gait SalivationDecreased locomotor activity + Blood Chemistry: TG decrease + Relative Organ Weight: Liver …”, the NOEL stood at 40 mg/kg-day.

With `Nc1nc(=S)[nH][nH]1` [3-Amino-1,2,4-triazole-5-thiol], for the setting “subchronic, gavage, M/F, Sprague-Dawley, Deaths + Clinical Observation: White turbid urine SalivationSoft stool + Body Weight Changes: decrease + Food Consumption: decrease + …”, the NOEL is 10 mg/kg-day.

As for `C=CC(F)(F)C(F)(F)C(F)(F)C(F)(F)C(F)(F)C(F)(F)C(F)(F)C(F)(F)F` [1H,1H,2H-Perfluoro-1-decene], the NOEL (short-term, duration: 28 days, gavage, M/F, Hematology: Trend of anemia + Blood Chemistry: GOT increase, GPT increase, T-CHO decrease + Absolute Organ Weight: Liver increase + …) was found to be 8 mg/kg-day.

Take `CC(C)N1C(=O)C=CC1=O` [1-(Propan-2-yl)-1H-pyrrole-2,5-dione]: the NOEL (short-term, duration: 28 days, gavage, M/F, Clinical Observation: Salivation + Organ Weight: Liver increase, Kidney increase + Necropsy: Liver- Enlargement Kidney- Enlargement) was determined as 40 mg/kg-day.

Regarding `CC(C)(C)c1cc(C(=O)O)c(O)c(C(C)(C)C)c1` [Benzoic acid, 3,5-bis(1,1-dimethylethyl)-2-hydroxy-], the NOEL (subchronic, gavage, M, Sprague-Dawley, Blood Chemistry: ALT(GPT) increase, TG increase + Absolute Organ Weight: Liver increase + Relative Organ Weight: Liver increase) was determined as 20 mg/kg-day.

On to `CCCCCOC(=O)c1c(Cl)c(Cl)cc(Cl)c1OC(=O)C(=O)Oc1c(Cl)cc(Cl)c(Cl)c1C(=O)OCCCCC` [Bis(2,4,5-trichloro-6-carbopentoxyphenyl) oxalate], for which the NOEL (short-term, duration: 28 days, gavage, M/F, Deaths + Clinical Observation: Salivation + Hematology: PT increase, APTT increase + Blood Chemistry: TP increase, ALB increase, TG …) was less than 8 mg/kg-day.

With `Oc1ccc(Cl)cc1Cc1ccccc1` [Clorophene], the NOEL (subchronic, duration: 13 weeks, gavage, M/F, Fischer 344, Deaths + Clinical Observation: Red-yellow staining of urogenital region hair coat Alopecia of head Brown discoloration of hair coat around …) was less than 30 mg/kg-day.

Regarding `CC(I)C1OCC(CO)O1` (configuration not stated) [Iodinated glycerol], the NOEL (subchronic, duration: 13 weeks, gavage, M/F, Fischer 344, Deaths + Body Weight Changes: decrease + Histopathology: Kidney-Tubular cell regeneration Kidney-Calcification) came out at 250 mg/kg-day.

With `N#[N+]c1ccc2c(S(=O)(=O)[O-])cccc2c1[O-].[Na+]`, the NOEL (subchronic, gavage, M, Sprague-Dawley, Clinical Observation: Loose stool Mucous stool Soiled perineal region Brownish urine + Body Weight Changes: decrease(trend) + Food …) is less than 40 mg/kg-day.

For the compound `O=[N+]([O-])/N=C1\NCCN1Cc1ccc(Cl)nc1` [Imidacloprid], under “chronic, duration: 96 days, gavage, M/F, Body Weight Changes: Weight gain decrease + Hematology: WBC decrease, QT increase + Blood Chemistry: BUN increase, CL increase, IP decrease…”, the NOEL was less than 150 ppm.

For `COc1c(Cl)c(Cl)c(Cl)c(Cl)c1Cl` [Pentachloroanisole], the NOEL (subchronic, duration: 13 weeks, gavage, M/F, Fischer 344, Deaths + Clinical Observation: Labored respiration + Body Weight Changes: decrease + Blood Chemistry: Ch E decrease + Absolute Organ Weight…) is less than 40 mg/kg-day.

Regarding `C(COCC1CO1)OCC1CO1` (configuration not stated) [Ethylene glycol diglycidyl ether], under “subchronic, duration: 42 days, gavage, M, CD(SD), Clinical Observation: Salivation + Body Weight Changes: decrease + Food Consumption: decrease + Blood Chemistry: TG decrease + …”, the NOEL came out at 12.5 mg/kg-day.
